{"source": "patent US20140024041A1", "about": "“SOFT SUBSTRATE FOR CELL CULTURE AND PROCESS FOR PREPARING THE SAME” (COMMISSARIAT A L'ENERGIE ATOMIQUE ET AUX ENERGIES …, priority 2011, published 2014)", "key": {"MCF10A cells": {"tested_on": "MCF10A cells", "assay": "Cell traction force measurement from crossbow micropattern bar shortening on PAA", "format": "cell-based, human", "description": "Non-tumorigenic human epithelial cells from the mammary gland, MCF10A, were plated on the micropatterned PAA substrates. Cells specifically attached to the fibronectin coated micropatterns since non-exposed PAA regions prevented protein adsorption (FIG. 2D). The effect of micropattern geometry on cell traction forces orientation was tested on various shapes: disc, pacman and crossbow (FIG. 3A). Spread cells exerted traction forces on the micropattern that could be measured by looking at the displacement of fluorescent beads embedded in the PAA gel (see FIG. 3B and Material and Methods). Particle Image Velocimetry followed by individual particle tracking were used to measure bead displacements ((Marganski et al (2003) Methods Enzymol 361:197-211; Sabass et al (2008) Biophys J 94(1):207-220). Force fields were calculated from the bead displacement fields by using the Fourier transform traction cytometry ((Sabass et al, supra; Butler et al (2002) Am J Physiol Cell Physiol 282(3):C595-605). Force fields exerted by individual cells were overlaid and averaged to quantify their reproducibility (FIG. 3C, D). On homogeneously coated regions cells developed forces that were randomly distributed from one cell to the other. In cells constrained on disc shaped micropatterns, forces were still randomly oriented but their magnitudes were lowered due to reduced cell spreading. In cells constrained on pacman shaped micropatterns, forces distribution was geometrically biased due to enhanced cell contraction above non adhesive regions. […] Importantly, most of the traction forces were reproducibly oriented upward, along the straight adhesive bar on the extremity of which the inventors measured the highest pressure (FIG. 3D). […]\nWhen actin cables have an unpredictable spatial distribution, a given deformation cannot be directly assigned to a defined force magnitude. […] When the deformation was measured along the shortest, and therefore most contracted, cell axis, the correlation was improved (FIG. 4C). […]"}, "[1]": {"tested_on": "MCF10A expressing inducible ErbB2 receptor", "assay": "Cell traction force measurement from crossbow micropattern shortening, ErbB2 inducible cells", "format": "cell-based, human", "settings": "ErbB2 receptors activated with ligand, 1 μM, 48 hr before measurement, FIG. 5C", "text": "When actin cables have an unpredictable spatial distribution, a given deformation cannot be directly assigned to a defined force magnitude. Indeed, forces applied on adjacent adhesion sites both affect local deformations, due to the continuous nature of the substrate. Each deformation results from local and distant forces. So the calculation of the force field is highly dependent on the spatial distribution of force application sites and the relationship between deformation and forces varies from one cell to the other. The inventors hypothesized that in cells developing a reproducible architecture and a controlled pattern of force application, a given local deformation could be assigned to a defined value of the contractile force. […] When the deformation was measured along the shortest, and therefore most contracted, cell axis, the correlation was improved (FIG. 4C). […] On the crossbow, a single image acquisition was sufficient to measure the bar length and read the corresponding average cell traction force using the calibration curve (FIG. 5F). […]\nThe culture of MCF10A cells and the generation of ΔCK2β cell line were described previously (Deshiere et al (2008) Mol Cell Biochem 316(1-2):107-113). […] Substrate relaxation was assessed by detaching cells with trypsin. […]"}}, "data": [{"molecule": "Cc1ccc2c(c1)C(=O)C1(O)CCN(c3ccccc3)C1=N2", "note": "(stereo not shown) [Blebbistatin]", "values": [{"measurement": "force magnitude decrease over time", "setting": "MCF10A cells; 50 μM, single cell, FIG. 5B", "result": "follows a single exponential decay"}, {"measurement": "force inhibition profile in response to increasing dose", "setting": "MCF10A cells; increasing dose, crossbow bar length, FIG. 5A", "result": "matched the myosin II inhibition profile"}]}, {"molecule": "TGFb1: known to induce epithelial to mesenchymal transition; from R&D systems", "values": [{"measurement": "level of cell contraction vs WT cells (crossbow shortening)", "setting": "MCF10A cells; 2 ng/mL for 2 days before plating, FIG. 5C", "result": "significantly higher level of cell contraction"}]}, {"molecule": "CCC(C)(C)C(=O)C(=O)N1CCCC[C@H]1C(=O)O[C@H](CCc1ccc(OC)c(OC)c1)c1cccc(OCC(=O)NCCNC(=O)COc2cccc([C@@H](CCc3ccc(OC)c(OC)c3)OC(=O)[C@@H]3CCCCN3C(=O)C(=O)C(C)(C)CC)c2)c1", "note": "[AP 1510]", "values": [{"measurement": "level of cell contraction vs WT cells", "setting": "[1]", "result": "no significant changes"}]}]}
